Source: ChEMBL document CHEMBL6092130, “Recent advances in the treatment of gout with NLRP3 inflammasome inhibitors” (Bioorg Med Chem, 2024)
One block for each compound: values may come before it.

Experiments:
[1] = Inhibition of NLRP3 inflammasome activation in LPS-induced mouse RAW264.7 cells assessed as downregulation of NLRP3 expression; type: cell-based
[2] = Antiinflammatory activity against LPS-stimulated human MDM cells assessed as inhibition of LPS-induced IL-1beta level at 20 uM incubated for 24 hrs by ELISA relative to control; type: functional; set-up: scale not given: the % may be the effect or the level left
[3] = Inhibition of NLRP3 inflammasome in mouse J774.A1 cells assessed as inhibition of IL-1 beta secretion; type: cell-based
[4] = Oral bioavailability in human; type: ADME, organism-based; conditions: in vivo
[5] = Inhibition of NLRP3 inflammasome activation in LPS-induced mouse RAW264.7 cells assessed as reduction of NLRP3 expression by Western blot analysis; type: cell-based
[6] = system: RAW264.7; test: Antiinflammatory activity against mouse RAW264.7 cells assessed as decrease in LPS-induced IL-1beta level at 20 uM incubated for 24 hrs by ELISA relative to control; type: functional; set-up: scale not given: the % may be the effect or the level left
[7] = Cytotoxicity against human PBMC cells assessed as reduction in cell viability by CellTiter Glo assay; type: functional, cell-based

IC50 [1]: 147 nM
Structure (SMILES): CNS(=O)(=O)c1ccc(CCNC(=O)c2ccccc2)cc1

IC50 [3]: 8450 nM
Structure (SMILES): COc1ccc(Cl)cc1C(=O)NCCc1ccc(S(=O)(=O)NO)cc1

bioavailability [4]: 48.1%
Structure (SMILES): CC(C)C[C@H](NC(=O)[C@H](Cc1ccccc1)NC(=O)c1c(F)cccc1F)B(O)O

More lines, now with the values behind:

Structure (SMILES): CC(C)(O)c1coc(S(=O)(=O)NC(=O)Nc2c3c(cc4c2CCC4)CCC3)c1
IC50 [1]: 7.5 nM

Structure (SMILES): CS(=O)(=O)CCC#N
Activity [2]: 60%

Structure (SMILES): CCCCN(CCCC)S(=O)(=O)c1ccc(CCNC(=O)c2cc(Cl)ccc2OC)cc1
IC50 [1]: 550 nM

Structure (SMILES): COc1ccc(CNS(=O)(=O)c2ccc(CCNC(=O)c3cc(Cl)ccc3OC)cc2)cc1
IC50 [1]: 450 nM

Structure (SMILES): COc1ccc(Cl)cc1C(=O)NCCc1ccc(S(=O)(=O)NC(=O)NC2CCCCC2)cc1 [GLYBURIDE]
IC50 [5]: 13000 nM

Structure (SMILES): CC(C)C[C@H](NC(=O)CNC(=O)c1cc(Cl)ccc1Cl)B(O)O [IXAZOMIB]
Activity [6]: 77%

Structure (SMILES): C=C1C(=O)[C@]23[C@H](O)[C@H]1CC[C@H]2[C@@]12CO[C@]3(O)[C@@H](O)[C@@H]1C(C)(C)CC[C@@H]2O [ORIDONIN]
IC50 [7]: 5180 nM
